{
  "source": "the METLIN SMRT retention time set (Domingo-Almenara et al. 2019)",
  "data": [
    {"assay": "gradient 5% acetonitrile 3 min, to 50% in 2 min, to 85% in 15 min, held 3 min, 100 µL/min", "details": "column: Zorbax Extend-C18 2.1 x 50 mm; eluents: water / acetonitrile, 0.1% formic acid", "summary_of_the_method": "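Mixtures of ~100 pure standards were chromatographed on a Zorbax Extend-C18 column (2.1 × 50 mm, 1.8 μm) at 100 μL/min using water and acetonitrile, each with 0.1% formic acid. Detection used a quadrupole time-of-flight mass spectrometer in positive and negative ionization mode, and data collection spanned 3 months. Retention time was obtained from adduct peaks picked computationally and each checked manually.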", "units": {"RP-LC retention time": "s"}, "values": [
      {"smiles": "Cc1ccc(S(=O)(=O)Cc2nc(-c3cccc(Br)c3)no2)cc1", "RP-LC retention time": 1040},
      {"smiles": "O=C(NCCn1c(=O)n(Cc2ccc(F)cc2)c2cccnc21)C1CC1", "RP-LC retention time": 711},
      {"smiles": "COc1ccc(CNC(=O)C2CCCN(c3nc4ccsc4c(=O)n3-c3ccc(F)cc3)C2)cc1", "note": "(configuration not stated)", "RP-LC retention time": 857},
      {"smiles": "CNC(=O)C1CCCN1C(=O)Nc1ccc(C)cc1", "note": "(configuration not stated)", "RP-LC retention time": 640},
      {"smiles": "COc1ccc(N2CCN(C(=O)C3c4ccccc4CCN3C(=O)C3CC3)CC2)cc1", "note": "(configuration not stated)", "RP-LC retention time": 811},
      {"smiles": "COc1ccc(-c2noc(-c3nn(-c4ccc(C)c(C)c4)ccc3=O)n2)cc1", "RP-LC retention time": 923},
      {"smiles": "CCn1cc(CCNC(=O)Cc2ccccc2C)c2cccnc21", "RP-LC retention time": 721},
      {"smiles": "CCN1CCN(CCNC(=O)CCCN2C(=O)CCn3nc(-c4cccn4C)cc32)CC1", "RP-LC retention time": 575},
      {"smiles": "O=C(CSC1CCCC1)N1CCCC(c2nnc(-c3ccccc3F)s2)C1", "note": "(configuration not stated)", "RP-LC retention time": 994},
      {"smiles": "COc1ccc(-c2nc(Cn3cnc4ccccc4c3=O)no2)c(OC)c1", "RP-LC retention time": 765},
      {"smiles": "COC1CCC12CCN(C(=O)c1sc(C)nc1C)CC2", "note": "(configuration not stated)", "RP-LC retention time": 728},
      {"smiles": "COc1cccc(N2CCN(C(=O)c3cn4ccccc4n3)CC2)c1", "RP-LC retention time": 644},
      {"smiles": "CNC(=O)C1CCN(Cc2cc3ccccc3n2Cc2ccc(C)cc2)CC1", "RP-LC retention time": 693},
      {"smiles": "CC(C)C(=O)n1nc(-c2ccc(Cl)cc2)nc1N", "RP-LC retention time": 1050},
      {"smiles": "COc1ccc(-c2csc(NC(=O)CS(=O)(=O)c3ccc(Cl)cc3)n2)c(OC)c1", "RP-LC retention time": 1020},
      {"smiles": "O=C(NC1CC1)c1nc(Nc2ccc(F)cc2)c2ccccc2n1", "RP-LC retention time": 712},
      {"smiles": "CCN(CC)S(=O)(=O)c1ccc2c(c1)N(CC(=O)N1CCCC1)C(=O)C1CCCCN21", "note": "(configuration not stated)", "RP-LC retention time": 835},
      {"smiles": "Cn1nccc1-c1cccc(-c2noc(-c3ccc(CS(=O)(=O)c4ccccc4)cc3)n2)c1", "RP-LC retention time": 1080},
      {"smiles": "COc1ccc2nc(OC3CCN(C(=O)c4ccc(S(C)(=O)=O)cc4)CC3)sc2c1", "RP-LC retention time": 774},
      {"smiles": "CC1CCN(S(=O)(=O)c2ccc3nn(Cc4c(F)cccc4Cl)c(=O)n3c2)CC1", "RP-LC retention time": 1030},
      {"smiles": "O=C(Cc1ccccc1Cl)N1CCc2nc[nH]c2C1", "RP-LC retention time": 584},
      {"smiles": "O=C(Nc1ccc(F)cc1F)c1c(O)c2cccnc2n(Cc2ccccc2)c1=O", "RP-LC retention time": 1310},
      {"smiles": "Cc1ccc(C)c(NC(=O)N2CCN(c3nc(C)cc(N(C)C)n3)CC2)c1", "RP-LC retention time": 572},
      {"smiles": "COc1ccc(C(=O)Nc2cccn3nc(C(C)C)nc23)cc1", "RP-LC retention time": 873},
      {"smiles": "CCCCn1c(=O)c2ccccc2n(Cc2nc(-c3ccc(Br)cc3)no2)c1=O", "RP-LC retention time": 1300},
      {"smiles": "Cc1ccc(NC(=O)Cn2nc(N3CCCC3)c3ccccc3c2=O)c(F)c1", "RP-LC retention time": 885},
      {"smiles": "CC(C)CN1C(=O)c2cccn2CC1C(=O)NC1CCCCC1", "note": "(configuration not stated)", "RP-LC retention time": 797},
      {"smiles": "O=C(Nc1ccc(C(=O)N2CCC(C(=O)NC3CCCCC3)CC2)cc1)c1ccc(Cl)cc1", "RP-LC retention time": 835},
      {"smiles": "c1cncc(-c2n[nH]c(C3CCCN(Cc4ccsc4)C3)n2)c1", "note": "(configuration not stated)", "RP-LC retention time": 552},
      {"smiles": "COC(=O)Nc1nc2ccc(C(=O)c3ccc(F)cc3)cc2[nH]1", "RP-LC retention time": 864},
      {"smiles": "CCOC(=O)CCCn1nc(C)c2nn(-c3ccccc3)c(-n3cccc3)c2c1=O", "RP-LC retention time": 1060},
      {"smiles": "COc1cccc(C(=O)CSc2ccc(NC(=O)c3cccs3)nn2)c1", "RP-LC retention time": 846},
      {"smiles": "Cc1ccc(C(=O)N2CCCC(COc3ccc(C(=O)NC(C)C)cc3)C2)cc1F", "note": "(configuration not stated)", "RP-LC retention time": 896},
      {"smiles": "CCn1c(=O)c(=O)n(CC(=O)NCCc2ccco2)c2cccnc21", "RP-LC retention time": 638},
      {"smiles": "Cc1cccc(OCC(=O)NC2(c3nc(C)no3)CCCCC2)c1", "RP-LC retention time": 951},
      {"smiles": "O=C(Cn1ccc2ccc(N3CCOCC3)nc21)N1CCN(c2ccc(Cl)cc2)CC1", "RP-LC retention time": 1000},
      {"smiles": "Cc1cc2c(cc1S(=O)(=O)N1CCCC1C(=O)NC1CCCC1)OC(C)C(=O)N2", "note": "(configuration not stated)", "RP-LC retention time": 730},
      {"smiles": "Cc1ccc2ncn(C3CCN(C(=O)Nc4ccc(F)cc4F)CC3)c(=O)c2c1", "RP-LC retention time": 770},
      {"smiles": "Nc1cc(C2CCN(C(=O)Nc3ccc(F)cc3)CC2)no1", "RP-LC retention time": 668},
      {"smiles": "O=C(Nc1ccc(N2CCCS2(=O)=O)cc1)NC(c1ccccc1)c1ccccc1", "RP-LC retention time": 814},
      {"smiles": "CN(C)C(=O)c1ccc2c(c1)N(CC(=O)NCCC1=CCCCC1)C(=O)C1CCCCN21", "note": "(configuration not stated)", "RP-LC retention time": 830},
      {"smiles": "COC(=O)c1c(C)c(C(=O)C(C)N(CCC(C)C)C(=O)c2ccccc2Cl)c(C)n1C", "note": "(configuration not stated)", "RP-LC retention time": 1130},
      {"smiles": "O=C1CC2(CCCC2)CC(=O)N1CCCCNCC1COc2ccccc2O1", "note": "(configuration not stated)", "RP-LC retention time": 758},
      {"smiles": "Cc1ccnc(N2CCC(C(=O)NCCCN3CCCC(C)C3)CC2)n1", "note": "(configuration not stated)", "RP-LC retention time": 568},
      {"smiles": "C=CC(=O)Nc1cc2c(Nc3ccc(F)c(Cl)c3)ncnc2cc1OCCCN1CCOCC1", "RP-LC retention time": 630},
      {"smiles": "O=C(Cc1cccs1)N1CCCCC1c1nc(-c2cnccn2)no1", "note": "(configuration not stated)", "RP-LC retention time": 726},
      {"smiles": "CC(=O)c1cccc(NC(=O)Cn2c(=O)n(-c3ccc(F)cc3)c(=O)c3c2cc(C)n3C)c1", "RP-LC retention time": 910},
      {"smiles": "CCC(C)N(CC(=O)N1CCc2sccc2C1COc1cccc(F)c1)C(C)=O", "note": "(configuration not stated)", "RP-LC retention time": 754},
      {"smiles": "CC(C)c1ccc(C(C)NC(=O)C2CCN(Cc3cn(C)c4ccccc34)CC2)cc1", "note": "(configuration not stated)", "RP-LC retention time": 804},
      {"smiles": "CC(=O)N1CCc2cc(-c3ccc(C(=O)NCCCN4CCCCC4C)cc3)ccc21", "note": "(configuration not stated)", "RP-LC retention time": 616},
      {"smiles": "Cc1ccc(C)c(CN2CCC(N3CCN(Cc4nc(C)no4)C3=O)C2)c1", "note": "(configuration not stated)", "RP-LC retention time": 630},
      {"smiles": "Cc1cc2c(cc1S(=O)(=O)N1CCCC1C(=O)Nc1ccc3c(c1)OCCO3)OCC(=O)N2", "note": "(configuration not stated)", "RP-LC retention time": 700},
      {"smiles": "Cc1ccc(Cn2cccc2C(=O)C(=O)N2CCN(c3ccccn3)CC2)cc1C", "RP-LC retention time": 726},
      {"smiles": "CCNC(=O)C1CC(=O)N(c2cccc(C)c2)C1", "note": "(configuration not stated)", "RP-LC retention time": 658},
      {"smiles": "O=C(Nc1ccccc1F)N1CCC(n2cnc3ccc(F)cc3c2=O)CC1", "RP-LC retention time": 743},
      {"smiles": "O=C(c1ccsc1)N(CCc1cccs1)C1CC1", "RP-LC retention time": 853},
      {"smiles": "CCN1CCn2cc(S(=O)(=O)Nc3ccc(OC)cc3)cc2C1=O", "RP-LC retention time": 684},
      {"smiles": "CCc1noc2nc(CCC(=O)NCCN3CCN(CC)CC3)nc(N3CCCCC3)c12", "RP-LC retention time": 599},
      {"smiles": "CN1C(=O)Cc2cc(C(=O)NCc3ccc(F)c(Cl)c3)ccc21", "RP-LC retention time": 766},
      {"smiles": "CCc1ccc(N2C(=O)CN(S(=O)(=O)CC)CC2(C)C(=O)NCc2ccccc2)cc1", "note": "(configuration not stated)", "RP-LC retention time": 868},
      {"smiles": "CCC(C)NC(=O)c1c(O)c2sccc2n(Cc2ccccc2)c1=O", "note": "(configuration not stated)", "RP-LC retention time": 1310},
      {"smiles": "CCn1cc(CN2C[C@@H](COC)[C@H](c3nc(C)no3)C2)c2ccccc21", "RP-LC retention time": 676},
      {"smiles": "Cc1cccc(NC(=O)C2CCCN2S(=O)(=O)c2cccc3nsnc23)n1", "note": "(configuration not stated)", "RP-LC retention time": 798},
      {"smiles": "CCOC(=O)c1nc(N2CCN(Cc3ccccc3)CC2)c2ccccc2n1", "RP-LC retention time": 623},
      {"smiles": "O=C(Cn1cnc2cc3c(cc21)OCCO3)Nc1cccc(C(F)(F)F)c1", "RP-LC retention time": 697},
      {"smiles": "CCOc1ccc(CCNC(=O)c2nc(CCS(=O)(=O)c3ccc(F)cc3)no2)cc1OCC", "RP-LC retention time": 952},
      {"smiles": "COc1ccc(S(=O)(=O)N2CCCC(C)(C(=O)NCc3cccc(OC)c3)C2)cc1", "note": "(configuration not stated)", "RP-LC retention time": 903}
    ]}
  ]
}
